By inhibition is commonly meant the drop in the measured response relative to a control, in per cent.

Here are results for 15 compounds from patent publication US8680159B2, “Bradykinin 1 receptor modulating compounds” (Gruenenthal GmbH, priority 2010, dated 2014).

Structures are written as SMILES.

One assay has as its target T1, human B1R receptor (CHO K1 cells stably transfected with the human B1R gene) (Homo sapiens, UniProt P46663).
T1 construct: expressed in transfected cells; host or cells: CHO K1 cells (Chinese hamster ovary), stably transfected
T1 sequence (P46663 1-353): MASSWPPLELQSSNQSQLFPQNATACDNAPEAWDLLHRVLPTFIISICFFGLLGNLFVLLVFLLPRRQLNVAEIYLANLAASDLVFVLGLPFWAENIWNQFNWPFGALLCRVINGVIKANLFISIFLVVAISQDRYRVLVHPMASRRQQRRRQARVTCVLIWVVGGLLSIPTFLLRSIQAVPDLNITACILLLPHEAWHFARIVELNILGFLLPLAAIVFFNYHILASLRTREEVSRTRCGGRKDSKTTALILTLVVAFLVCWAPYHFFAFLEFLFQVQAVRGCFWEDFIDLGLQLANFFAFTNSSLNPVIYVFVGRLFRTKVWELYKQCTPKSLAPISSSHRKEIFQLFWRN
The assay is described as follows: Functional study on the bradykinin receptor 1 (B1R), Ca2+ fluorescence (Fluo-4) FLIPR/Novostar assay, hB1R cells. The class given is cell-based. To be noted: CHO-K1, read-out: % Inhibition (h-B1R) at 10 μM. How it is done:
The agonistic or antagonistic action of substances can be quantified on the bradykinin receptor 1 (B1R) of the species human and rat using ectopically expressing cell lines (CHO K1 cells) and with the aid of a Ca^2+-sensitive dye (Fluo-4) using a fluorescent imaging plate reader (FLIPR). The indication in % activation is based on the Ca^2+ signal after addition of Lys-Des-Arg^9-bradykinin (0.5 nM) or Des-Arg^9-bradykinin (100 nM). Antagonists lead to suppression of the Ca^2+ influx after the addition of the agonist. % Inhibition compared with the maximum achievable inhibition is indicated.
The agonistic or antagonistic action of substances can be determined on the bradykinin receptor 1 (B1R) of the species human and rat using the following assay. According to this assay, the increase in intracellular Ca^2+ following administration of a B1R agonist is quantified with the aid of a Ca^2+-sensitive dye (Fluo-4 type, Molecular Probes Europe BV, Leiden, Netherlands) using a Fluorescent Imaging Plate Reader (FLIPR, Molecular Devices, Sunnyvale, USA) and/or using a Novostar (BMG Labtech GmbH, Offenburg, Germany).
Chinese hamster ovary cells (CHO K1 cells) which have been stably transfected with the human B1R gene (hB1R cells) or with the B1R gene of the rat (rB1R cells) are used. For functional studies, the cells are plated out on black 96-well plates having a clear base (BD Biosciences, Heidelberg, Germany or Greiner, Frickenhausen, Germany) in a density of 20,000-35,000 cells/well. The cells are left overnight at 37° C. and with 5% CO2 in culture medium (hB1R cells: Nutrient Mixture Ham's F12, Gibco Invitrogen GmbH, Karlsruhe, Germany or DMEM, Sigma-Aldrich, Taufkirchen, Germany; rB1R cells: D-MEM/F12, Gibco Invitrogen GmbH, Karlsruhe, Germany), with 10 vol. % FBS (fetal bovine serum, Gibco Invitrogen GmbH, Karlsruhe, Germany or PAN Biotech GmbH, Aidenbach, Germany). On the following day, the cells are loaded for 60 minutes at 37° C. with 2.13 μM Fluo-4 (Molecular Probes Europe BV, Leiden, Netherlands) in HBSS buffer (Hank's buffered saline solution, Gibco Invitrogen GmbH, Karlsruhe, Germany) […] (Sigma-Aldrich, Taufkirchen, Germany) and 10 mM HEPES (Sigma-Aldrich, Taufkirchen, Germany). The plates are then washed twice with HBSS buffer, and HBSS buffer additionally containing 0.1% BSA (bovine serum albumin; Sigma-Aldrich, Taufkirchen, Germany), 5.6 mM glucose and 0.05% gelatin (Merck KGaA, Darmstadt, Germany) is added to the plates. After incubation for a further 20 minutes at room temperature, the plates are inserted into the FLIPR or Novostar for Ca^2+ measurement. Alternatively, washing is carried out with buffer A (15 mM HEPES, 80 mM NaCl, 5 mM KCl, 1.2 mM CaCl2, 0.7 mM MgSO4, 2 g/l glucose, 2.5 mM probenecid) followed by loading with buffer A with added 2.5 μM Fluo-4 and 0.025% Pluronic F127 (Sigma-Aldrich, Taufkirchen, Germany). The cells are then washed twice with buffer A and incubated for 30 minutes at room temperature with buffer A additionally containing 0.05% BSA and 0.05% gelatin and are then inserted into the FLIPR or Novostar for Ca^2+ measurement. The Ca^2+-dependent fluorescence is measured before and after the addition of substances (λex=488 nm, λem=540 nm). Quantification is carried out by measuring the highest fluorescence intensity (FC, fluorescence counts) over time.
The FLIPR protocol consists of 2 substance additions, which are pipetted in the FLIPR. In the case of measurements using the Novostar, only the second substance addition is pipetted in the device. Both devices measure the fluorescence intensity over time. Test substances (10 μM) are first pipetted onto the cells and the intracellular Ca^2+ increase is compared with the control (hB1R: Lys-Des-Arg^9-bradykinin>=50 nM; rB1R: Des-Arg^9-bradykinin>=1 μM). This gives the % activation, based on the Ca^2+ signal after addition of Lys-Des-Arg^9-bradykinin (>=50 nM) or Des-Arg^9-bradykinin (>=1 μM). […]
With `CN(C(=O)c1ccc2c(c1)C(NC(=O)c1c(Cl)cccc1C(F)(F)F)CCO2)C1CCN(c2ccncc2)CC1` (stereo not drawn) [CC_H-72, 4-[[2-Chloro-6-(trifluoromethyl)-benzoyl]amino]-N-methyl-N-(1-pyridin-4-yl-piperidin-4-yl)-3,4-dihydro-2H-chromene-6-carboxylic acid amide], the inhibition at 10 µM was found to be 93%. On the same count and under the same terms, then `CN(C(=O)c1ccc2c(c1)C(NC(=O)C(C)(C)c1ccccc1Cl)CCO2)C1CCN(c2ccncc2)CC1` (stereo not drawn) [CC_H-97, 4-[[2-(2-Chlorophenyl)-2-methyl-propanoyl]amino]-N-methyl-N-(1-pyridin-4-yl-piperidin-4-yl)-3,4-dihydro-2H-chromene-6-carboxylic acid amide], with 92%; and `CN(C(=O)c1ccc2c(c1)C(N(C)C(=O)c1ccccc1Cl)CC2)C1CCN(c2ccncc2)CC1` (stereo not drawn) [CC_H-106, 3-[(2-Chloro-benzoyl)-methyl-amino]-N-methyl-N-(1-pyridin-4-yl-piperidin-4-yl)-2,3-dihydro-1H-indene-5-carboxylic acid amide], with 100%; and `Cc1cc(N2CCC(N(C)C(=O)c3ccc4c(c3)C(N(C)C(=O)C3CCCCC3)CC4)CC2)cc(C)n1` (stereo not drawn) [CC_H-81, 3-(Cyclohexanecarbonyl-methyl-amino)-N-[1-(2,6-dimethyl-pyridin-4-yl)-piperidin-4-yl]-N-methyl-2,3-dihydro-1H-indene-5-carboxylic acid amide], with 100%. Still for that read-out and setting: then `Cc1cc(N2CCC(N(C)C(=O)c3ccc4c(c3)C(N(C)C(=O)c3c(Cl)cccc3C(F)(F)F)CC4)CC2)cc(C)n1` (stereo not drawn) [CC_H-108, 3-[[2-Chloro-6-(trifluoromethyl)-benzoyl]-methyl-amino]-N-[1-(2,6-dimethyl-pyridin-4-yl)-piperidin-4-yl]-N-methyl-2,3-dihydro-1H-indene-5-carboxylic acid amide], with 91%; and `Cc1cc(N2CCC(N(C)C(=O)c3ccc4c(c3)C(N(C)C(=O)c3cncnc3)CC4)CC2)cc(C)n1` (stereo not drawn) [CC_H-92, N-[6-[[1-(2,6-Dimethyl-pyridin-4-yl)-piperidin-4-yl]-methyl-carbamoyl]-2,3-dihydro-1H-inden-1-yl]-N-methyl-pyrimidine-5-carboxylic acid amide], with 98%.

The same assay, now with this note: CHO-K1, read-out: % inhibition (human B1R) at 10 μM.
For the compound `Cc1cc(N2CCC(N(C)C(=O)c3ccc4c(c3)[C@H](N(C)C(=O)c3cccc(F)c3Cl)CC4)CC2)nc(C)n1` [Example H-195, (3R)-3-[(2-Chloro-3-fluoro-benzoyl)-methyl-amino]-N-[1-(2,6 dimethyl-pyrimidin-4-yl)-piperidin-4-yl]-N-methyl-2,3-dihydro-1H-indene-5-carboxylic acid amide], the inhibition at 10 µM is 100%. Still for that read-out and setting: the value for `Cc1cc(N2CCC(N(C)C(=O)c3cc4c(cc3F)CC[C@H]4NC(=O)c3ccccc3Cl)CC2)nc(C)n1` [Example H-213, (3R)-3-[(2-Chloro-benzoyl)amino]-N-[1-(2,6-dimethyl-pyrimidin-4-yl)-piperidin-4-yl]-6-fluoro-N-methyl-2,3-dihydro-1H-indene-5-carboxylic acid amide] was 100%; that for `Cc1cc(N2CCC(N(C)C(=O)c3ccc4c(c3)[C@H](N(C(=O)c3cccnc3C(F)(F)F)C(C)C)CC4)CC2)nc(C)n1` [Example H-207] was 44%. The same measure, in the same setting: then `Cc1cc(N2CCC(N(C)C(=O)c3ccc4c(c3)[C@H](NC(=O)C3CCCC3)CC4)CC2)nc(C)n1` [Example H-226, (3R)-3-(Cyclopentanecarbonylamino)-N-[1-(2,6-dimethyl-pyrimidin-4-yl)-piperidin-4-yl]-N-methyl-2,3-dihydro-1H-indene-5-carboxylic acid amide], with 99%. The same measure, in the same setting: the value for `CC(C)N(C(=O)c1cccnc1C(F)(F)F)[C@@H]1CCc2ccc(C(=O)N(C)C3CCN(c4ccncc4)CC3)cc21` [Example H-208, N-Isopropyl-N-[(1R)-6-[methyl-(1-pyridin-4-yl-piperidin-4-yl)-carbamoyl]-2,3-dihydro-1H-inden-1-yl]-2-(trifluoromethyl)-pyridine-3-carboxylic acid amide] was 45%; that for `Cc1cc(N2CCC(N(C)C(=O)c3ccc4c(c3)[C@H](N(C(=O)c3ccc(F)cc3Cl)C(C)C)CC4)CC2)nc(C)n1` [Example H-199, (3R)-3-[(2-Chloro-4-fluoro-benzobenzoyl)-isopropyl-amino]-N-[1-(2,6-dimethyl-pyrimidin-4-yl)-piperidin-4-yl]-N-methyl-2,3-dihydro-1H-indene-5-carboxylic acid amide] was 94%.

In the next assay the target is T2, B1R receptor of the rat (CHO K1 cells stably transfected with the B1R gene of the rat) (Rattus norvegicus, UniProt P97583).
T2 construct: expressed in transfected cells; host or cells: CHO K1 cells (Chinese hamster ovary), stably transfected
T2 sequence (P97583 1-337): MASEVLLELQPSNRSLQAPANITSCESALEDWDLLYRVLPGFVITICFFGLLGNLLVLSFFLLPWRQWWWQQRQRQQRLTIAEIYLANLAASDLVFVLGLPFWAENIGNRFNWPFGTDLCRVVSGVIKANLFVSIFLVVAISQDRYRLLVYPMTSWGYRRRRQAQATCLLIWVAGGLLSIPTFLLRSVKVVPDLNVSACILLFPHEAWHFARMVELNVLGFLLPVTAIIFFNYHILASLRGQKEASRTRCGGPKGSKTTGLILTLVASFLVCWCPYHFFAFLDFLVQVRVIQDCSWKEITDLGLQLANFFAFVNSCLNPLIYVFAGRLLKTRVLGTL
The assay is described as follows: Functional study on the bradykinin receptor 1 (B1R), Ca2+ fluorescence (Fluo-4) FLIPR/Novostar assay, rB1R cells. The following applies: CHO-K1, 10 μM, read-out: % Inhibition (r-B1R) at 10 μM. Format: cell-based. A digest of the protocol: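 Stably transfected CHO K1 cells carrying human or rat B1R were Fluo-4 loaded and Ca2+ fluorescence read by FLIPR or Novostar. Compounds were added first at 10 μM for % activation, then the EC80 agonist was applied after 6-20 min (human: Lys-Des-Arg9-bradykinin; rat: Des-Arg9-bradykinin). % inhibition is relative to maximum achievable inhibition, and IC50 comes from concentration series.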
Regarding `Cc1cc(N2CCC(N(C)C(=O)c3ccc4c(c3)C(NS(=O)(=O)Cc3ccccc3F)CC4)CC2)cc(C)n1` (stereo not drawn) [CC_H-323, N-[1-(2,6-Dimethyl-pyridin-4-yl)-piperidin-4-yl]-3-[[(2-fluorophenyl)-methylsulfonyl]amino]-N-methyl-2,3-dihydro-1H-indene-5-carboxylic acid amide], the inhibition at 10 µM came out at 110%. Same read-out and setting: then `Cc1ccc(F)c(C(=O)NC2CCCc3ccc(C(=O)N(C)C4CCN(c5ccncc5)CC4)cc32)c1Cl` (stereo not drawn) [CC_H-248, 8-[(2-Chloro-6-fluoro-3-methyl-benzoyl)amino]-N-methyl-N-(1-pyridin-4-yl-piperidin-4-yl)-5,6,7,8-tetrahydro-naphthalene-2-carboxylic acid amide], with 111%. Still for that read-out and setting: then `CN(C(=O)c1ccc2c(c1)C(NC(=O)C1CC1)CCC2)C1CCN(c2ccncc2)CC1` (stereo not drawn) [CC_H-250, 8-(Cyclopropanecarbonylamino)-N-methyl-N-(1-pyridin-4-yl-piperidin-4-yl)-5,6,7,8-tetrahydro-naphthalene-2-carboxylic acid amide], with 103%.
